Several values for one entry are separate records, joined by “and”; a condition that tells them apart may be missing. Equal entries are not always repeated. Where two headings read alike, the source gives them in different places.
Assays:
MDM2 = molecular target: T1, MDM2 (Homo sapiens, UniProt Q00987); experiment: Inhibition test of MDM2-P53 (GST-MDM2, Biotin-P53, Anti-GST-Tb, SA-XL665); format: binding
T1 construct: made in house
How it was run: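 Binding was measured by TR-FRET with GST-MDM2 at 4 nM final in PBS with 0.1% BSA, 5 mM DTT and 1 mM AEBSF. Compounds were tested as twelve-point 5-fold dilutions and incubated with the detection mix for 90 min at 25 °C with shaking before plate-reader reading and curve fitting.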

[1] = Pharmacokinetics in ICR mice after intravenous and intragastric administration; format: in vivo; conditions: for MRT last: read-out: MRT(0-t); for MRT inf: read-out: MRT(0-∞); for Vd: read-out: Vz
How it was run: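 Plasma concentration-time data, quantified by LC-MS/MS with a 1 ng/mL lower limit, gave AUC, t1/2, MRT, Cmax, Tmax, bioavailability, Vz and clearance. Overnight-fasted male ICR mice (three per route) received 2 mg/kg intravenously or 5 mg/kg intragastrically.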

[2] = tested on: human osteosarcoma cell line SJSA-1; experiment: Inhibition of proliferation of human osteosarcoma cell line SJSA-1 (DAPI staining, In Cell Analyzer); conditions: Homo sapiens, SJSA-1, 72 h, read-out: IC50 (nM), inhibitory activity on proliferation of human osteosarcoma cell line SJSA-1, SJSA-1, incubated 72 h
[3] = ICR mice, IV 2 mg/kg, individual animal, 2 mg/kg
[4] = ICR mice, PO 5 mg/kg, individual animal, 5 mg/kg
[5] = male, ICR, mouse, plasma, iv, 2 mg/kg, ICR mice, IV 2 mg/kg, individual animal
[6] = male, ICR, mouse, plasma, iv, 2 mg/kg, ICR mice, IV 2 mg/kg, individual animal, read-out: AUC(0-t)
[7] = male, ICR, mouse, plasma, iv, 2 mg/kg, ICR mice, IV 2 mg/kg, individual animal, read-out: Cmax
[8] = male, ICR, mouse, plasma, iv, 2 mg/kg, ICR mice, IV 2 mg/kg, individual animal, read-out: t1/2 (converted)
[9] = male, ICR, mouse, plasma, iv, 2 mg/kg, ICR mice, IV 2 mg/kg, mean of 3 animals
[10] = male, ICR, mouse, plasma, iv, 2 mg/kg, ICR mice, IV 2 mg/kg, mean of 3 animals, read-out: AUC(0-t)
[11] = male, ICR, mouse, plasma, iv, 2 mg/kg, ICR mice, IV 2 mg/kg, mean of 3 animals, read-out: Cmax
[12] = male, ICR, mouse, plasma, iv, 2 mg/kg, ICR mice, IV 2 mg/kg, mean of 3 animals, read-out: Tmax
[13] = male, ICR, mouse, plasma, iv, 2 mg/kg, ICR mice, IV 2 mg/kg, mean of 3 animals, read-out: t1/2 (converted)
[14] = male, ICR, mouse, plasma, po, 5 mg/kg, ICR mice, PO 5 mg/kg, individual animal
[15] = male, ICR, mouse, plasma, po, 5 mg/kg, ICR mice, PO 5 mg/kg, individual animal, read-out: AUC(0-t)
[16] = male, ICR, mouse, plasma, po, 5 mg/kg, ICR mice, PO 5 mg/kg, individual animal, read-out: t1/2 (converted)
[17] = male, ICR, mouse, plasma, po, 5 mg/kg, ICR mice, PO 5 mg/kg, mean of 3 animals
[18] = male, ICR, mouse, plasma, po, 5 mg/kg, ICR mice, PO 5 mg/kg, mean of 3 animals, read-out: AUC(0-t)
[19] = male, ICR, mouse, plasma, po, 5 mg/kg, ICR mice, PO 5 mg/kg, mean of 3 animals, read-out: Cmax
[20] = male, ICR, mouse, plasma, po, 5 mg/kg, ICR mice, PO 5 mg/kg, mean of 3 animals, read-out: Tmax
[21] = male, ICR, mouse, plasma, po, 5 mg/kg, ICR mice, PO 5 mg/kg, mean of 3 animals, read-out: t1/2 (converted)
[22] = male, ICR, mouse, plasma, po, 5 mg/kg, oral intragastric administration 5 mg/kg, read-out: AUC0-t
[23] = male, mouse, plasma, ICR mice, PO 5 mg/kg vs IV 2 mg/kg, from mean values, read-out: F* (bioavailability)

T1 sequence (Q00987 whole entry): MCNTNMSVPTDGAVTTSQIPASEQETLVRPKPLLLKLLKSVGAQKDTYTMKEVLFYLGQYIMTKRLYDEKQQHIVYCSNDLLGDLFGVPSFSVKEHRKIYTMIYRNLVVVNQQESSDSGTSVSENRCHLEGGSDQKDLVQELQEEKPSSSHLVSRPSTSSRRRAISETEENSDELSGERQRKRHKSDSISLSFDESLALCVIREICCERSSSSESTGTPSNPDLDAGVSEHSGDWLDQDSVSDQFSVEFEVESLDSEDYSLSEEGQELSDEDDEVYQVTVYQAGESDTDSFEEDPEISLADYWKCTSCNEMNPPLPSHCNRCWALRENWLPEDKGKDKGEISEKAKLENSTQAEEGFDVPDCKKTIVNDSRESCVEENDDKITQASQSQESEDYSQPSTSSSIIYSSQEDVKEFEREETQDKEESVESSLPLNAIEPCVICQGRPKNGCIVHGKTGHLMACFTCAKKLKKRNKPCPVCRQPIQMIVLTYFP

With COc1ncc(-c2nc3c(n2C(C)C)[C@@]2(C(=O)Nc4cc(Cl)ccc42)N(c2cc(F)cc(Cl)c2)C3=O)c(OC)n1 [Example S-45, (S)-6-chloro-5′-(3-chloro-5-fluorophenyl)-2′-(2,4-dimethoxypyrimidin-5-yl)-3′-isopropyl-3′H-spiro[dihydroindole-3,4′-pyrrolo[3,4-d]imidazole]-2,6′(5′H)-dione] the IC50 (MDM2) was 1.72 nM, the “AUC(0-t)” value [1, 3] was 1865.23 ng·h/mL and 2072.07 ng·h/mL and the “AUC(0-∞)” value [1, 3] was 1895.22 ng·h/mL and 2103.04 ng·h/mL. The CL [1, 3] was 17.59 mL/min/kg and 15.85 mL/min/kg, the Cmax [1, 3] was 779.74 ng/mL and 882.75 ng/mL and the “MRT(0-t)” value [1, 3] was 1.36 h. For the same molecule, the “MRT(0-∞)” value [1, 3] was 1.44 h, the Tmax [1, 3] was 0.08 h and 0.25 h and the Vz [1, 3] was 1.54 L/kg and 1.37 L/kg. For the same molecule, the t1/2 [1, 3] was 1.01 h and 1.00 h, the “AUC(0-t)” value [1, 4] was 5315.63 ng·h/mL and 4196.04 ng·h/mL and the “AUC(0-∞)” value [1, 4] was 5471.40 ng·h/mL and 4431.71 ng·h/mL. For the same molecule, the Cmax [1, 4] was 1355.63 ng/mL and 1169.32 ng/mL, the “MRT(0-t)” value [1, 4] was 2.53 h and the “MRT(0-∞)” value [1, 4] was 2.75 h. The Tmax [1, 4] was 1.00 h, the t1/2 [1, 4] was 1.54 h and 1.87 h and the AUC(0-inf) [1, 5] was 1830 ng·h/mL. It also gave a clearance [1, 5] of 18.3 mL/min/kg, an AUC(0-t) [1, 6] of 1790 ng·h/mL and a Cmax [1, 7] of 766 ng/mL. For the same molecule, the MRT last [1, 5] was 1.34 h, the MRT inf [1, 5] was 1.45 h and the Vd [1, 5] was 1.65 L/kg. The half-life [1, 8] was 1.05 h, the AUC(0-inf) [1, 9] was 1940 ng·h/mL and the clearance [1, 9] was 17.2 mL/min/kg. It also gave an AUC(0-t) [1, 10] of 19100 ng·h/mL, a Cmax [1, 11] of 809 ng/mL and an MRT last [1, 9] of 1.35 h. For the same molecule, the MRT inf [1, 9] was 1.45 h, the Tmax [1, 12] was 0.139 h and the Vd [1, 9] was 1.52 L/kg. For the same molecule, the half-life [1, 13] was 1.02 h, the AUC(0-inf) [1, 14] was 6350 ng·h/mL and the AUC(0-t) [1, 15] was 5860 ng·h/mL. It also gave a Cmax ([1]; male, ICR, mouse, plasma, po, 5 mg/kg, ICR mice, PO 5 mg/kg, individual animal, read-out: Cmax) of 1590 ng/mL, an MRT last [1, 14] of 2.56 h and an MRT inf [1, 14] of 3.21 h. For the same molecule, the Tmax ([1]; male, ICR, mouse, plasma, po, 5 mg/kg, ICR mice, PO 5 mg/kg, individual animal, read-out: Tmax) was 0.5 h, the half-life [1, 16] was 2.17 h and the AUC(0-inf) [1, 17] was 5420 ng·h/mL. For the same molecule, the AUC(0-t) [1, 18] was 5120 ng·h/mL, the Cmax [1, 19] was 1370 ng/mL and the MRT last [1, 17] was 2.55 h. The MRT inf [1, 17] was 2.99 h, the Tmax [1, 20] was 0.83 h and the half-life [1, 21] was 1.86 h. It also gave an AUC(0-t) [1, 22] of 5120 ng·h/mL, a half-life ([1]; male, ICR, mouse, plasma, po, 5 mg/kg, oral intragastric administration 5 mg/kg, read-out: half-life (converted)) of 1.86 h and a bioavailability ([1]; male, ICR, mouse, plasma, oral intragastric administration 5 mg/kg, read-out: bioavailability) of 107%. It also gave a bioavailability [1, 23] of 107% and an IC50 [2] of 6.2 nM.
With COc1cc(OC)c(-c2nc3c(n2C(C)C)[C@@]2(C(=O)Nc4cc(Cl)ccc42)N(c2cccc(Cl)c2)C3=O)cn1 [Example S-115, (S)-6-chloro-5′-(3-chlorophenyl)-2′-(4,6-dimethoxypyridin-3-yl)-3′-isopropyl-3′H-spiro[dihydroindole-3,4′-pyrrolo[3,4-d]imidazole]-2,6′(5′H)-dione] the IC50 (MDM2) was 1.3 nM, the “AUC(0-t)” value [1, 3] was 2278.66 ng·h/mL and 2987.42 ng·h/mL and the “AUC(0-∞)” value [1, 3] was 2289.66 ng·h/mL and 3011.30 ng·h/mL. The CL [1, 3] was 14.56 mL/min/kg and 11.07 mL/min/kg, the Cmax [1, 3] was 2549.96 ng/mL and 4136.98 ng/mL and the “MRT(0-t)” value [1, 3] was 0.79 h and 0.82 h. The “MRT(0-∞)” value [1, 3] was 0.82 h and 0.87 h, the Vz [1, 3] was 1.01 L/kg and 0.87 L/kg and the t1/2 [1, 3] was 0.80 h. For the same molecule, the “AUC(0-t)” value [1, 4] was 2355.30 ng·h/mL and 2985.59 ng·h/mL, the “AUC(0-∞)” value [1, 4] was 2377.88 ng·h/mL and 3066.25 ng·h/mL and the Cmax [1, 4] was 2135.46 ng/mL and 834.66 ng/mL and 601.29 ng/mL. The “MRT(0-t)” value [1, 4] was 1.37 h and 2.13 h and 3.22 h, the “MRT(0-∞)” value [1, 4] was 1.41 h and 2.20 h and 3.39 h and the Tmax [1, 4] was 0.50 h and 1.00 h and 4.00 h. For the same molecule, the t1/2 [1, 4] was 1.19 h and 1.12 h, the AUC(0-inf) [1, 5] was 2590 ng·h/mL and the clearance [1, 5] was 12.9 mL/min/kg. The AUC(0-t) [1, 6] was 2580 ng·h/mL, the Cmax [1, 7] was 3000 ng/mL and the MRT last [1, 5] was 0.9 h. It also gave an MRT inf [1, 5] of 0.94 h, a Tmax ([1]; male, ICR, mouse, plasma, iv, 2 mg/kg, ICR mice, IV 2 mg/kg, individual animal, read-out: Tmax) of 0.08 h and a Vd [1, 5] of 1 L/kg. The half-life [1, 8] was 0.9 h, the AUC(0-inf) [1, 9] was 2630 ng·h/mL and the clearance [1, 9] was 12.8 mL/min/kg. For the same molecule, the AUC(0-t) [1, 10] was 2610 ng·h/mL, the Cmax [1, 11] was 3230 ng/mL and the MRT last [1, 9] was 0.84 h. It also gave an MRT inf [1, 9] of 0.88 h, a Tmax [1, 12] of 0.083 h and a Vd [1, 9] of 0.96 L/kg. For the same molecule, the half-life [1, 13] was 0.87 h, the AUC(0-inf) [1, 14] was 3670 ng·h/mL and the AUC(0-t) [1, 15] was 3660 ng·h/mL. It also gave a half-life [1, 16] of 1.07 h, an AUC(0-inf) [1, 17] of 3040 ng·h/mL and an AUC(0-t) [1, 18] of 3000 ng·h/mL. The Cmax [1, 19] was 1190 ng/mL, the MRT last [1, 17] was 2.24 h and the MRT inf [1, 17] was 2.33 h. For the same molecule, the Tmax [1, 20] was 1.83 h, the half-life [1, 21] was 1.12 h and the AUC(0-t) [1, 22] was 3000 ng·h/mL. It also gave a bioavailability [1, 23] of 45.9% and an IC50 [2] of 3360 nM.

From patent US11339171B2, “MDM2 inhibitors” (Gan & Lee Pharmaceuticals, priority 2017, dated 2022)
